Measured values taken from patent US10294202B2, “Pyrrolidinones as herbicides” (FMC Corporation, priority 2013, dated 2019).

Experiments:
pigweed = assay: Test A pre-/postemergence herbicide test; assay type: in vivo, Amaranthus retroflexus; details: for Plant response rating, Pigweed: 0 to 100 scale
Method in brief: (§1)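 Seeds sown in loam soil/sand blend received a preemergence directed soil spray of test chemical in non-phytotoxic solvent with surfactant; postemergence plants (2–10 cm, one- to two-leaf stage) were sprayed with the same formulation. After about 10 days in greenhouse, injury was rated visually versus untreated controls, 0 (no effect) to 100 (complete control).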

barnyardgrass [1] = assay: Test A pre-/postemergence herbicide test; assay type: in vivo, Echinochloa crus-galli
Method in brief: as §1

ragweed = assay: Test A pre-/postemergence herbicide test; assay type: in vivo, Ambrosia elatior; details: for Plant response rating, Ragweed: 0 to 100 scale
Method in brief: as §1

kochia = assay: Test A pre-/postemergence herbicide test; assay type: in vivo, Kochia scoparia; details: for Plant response rating, Kochia: 0 to 100 scale
Method in brief: as §1

sedge, umbrella = assay: Test B flooded paddy test; assay type: in vivo, Cyperus difformis; details: 500 g ai/ha, Flood; scale of 0 to 100 where 0 is no effect and 100 is complete control
Method in brief: (§2)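 2-leaf plants; flood 3 cm over soil; compound into paddy water; depth held. Greenhouse 13–15 d. Visual rating vs controls, 0 (no effect) to 100 (complete control); dash = not tested.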

wheat = assay: Test A pre-/postemergence herbicide test; assay type: in vivo, Triticum aestivum; details: Postemergence; for Plant response rating, Wheat: 125 g ai/ha, 0 to 100 scale, 0 no effect, 100 complete control; for Wheat plant response rating (0 to 100 scale, 0 is no effect, 100 is complete control): 500 g ai/ha
Method in brief: as §1

ducksalad = assay: Test B flooded paddy test; assay type: in vivo, Heteranthera limosa; details: 500 g ai/ha, Flood; scale of 0 to 100 where 0 is no effect and 100 is complete control
Method in brief: as §2

giant foxtail = assay: Test A pre-/postemergence herbicide test; assay type: in vivo, Setaria faberii; details: for Plant response rating, Foxtail, Giant: 0 to 100 scale
Method in brief: as §1

ryegrass, Italian = assay: Test A pre-/postemergence herbicide test; assay type: in vivo, Lolium multiflorum; details: for Plant response rating, Ryegrass, Italian: 0 to 100 scale
Method in brief: as §1

corn = assay: Test A pre-/postemergence herbicide test; assay type: in vivo, Zea mays; details: Postemergence; for Plant response rating, Corn: 125 g ai/ha, 0 to 100 scale, 0 no effect, 100 complete control; for Corn plant response rating (0 to 100 scale, 0 is no effect, 100 is complete control): 500 g ai/ha
Method in brief: as §1

blackgrass = assay: Test A postemergence herbicide test; assay type: in vivo, Alopecurus myosuroides; details: for Plant response rating, Blackgrass: 125 g ai/ha, 0 to 100 scale, 0 no effect, 100 complete control; for Blackgrass plant response rating (0 to 100 scale, 0 is no effect, 100 is complete control): 500 g ai/ha
Method in brief: (§3)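 Plants at the one- to two-leaf stage, 2–10 cm tall, grown in loam/sand pots, received postemergence sprays of the test chemicals. After about 10 days in the greenhouse, injury was scored visually against untreated controls on a 0–100 scale (0 none, 100 complete control).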

rice = assay: Test B flooded paddy test; assay type: in vivo, Oryza sativa; details: 500 g ai/ha, Flood; scale of 0 to 100 where 0 is no effect and 100 is complete control
Method in brief: as §2

galium = assay: Test A postemergence herbicide test; assay type: in vivo, Galium aparine; details: for Plant response rating, Galium: 125 g ai/ha, 0 to 100 scale, 0 no effect, 100 complete control; for Galium plant response rating (0 to 100 scale, 0 is no effect, 100 is complete control): 500 g ai/ha
Method in brief: as §3

barnyardgrass [2] = assay: Test B flooded paddy test; assay type: in vivo, Echinochloa crus-galli; details: 500 g ai/ha, Flood; scale of 0 to 100 where 0 is no effect and 100 is complete control
Method in brief: as §2

[3] = 125 g ai/ha, visual rating, 0 no effect, 100 complete control, approximately 10 days, preemergence
[4] = Postemergence, 125 g ai/ha, 0 no effect, 100 complete control
[5] = 125 g ai/ha, visual rating, 0 to 100 scale, 0 no effect, 100 complete control, approximately 10 days, preemergence
[6] = Postemergence, 125 g ai/ha, 0 to 100 scale, 0 no effect, 100 complete control
[7] = preemergence, 500 g ai/ha, 0 to 100 scale (0 no effect, 100 complete control)

Row | SMILES | Plant response rating, Pigweed (pigweed; [3]) | Plant response rating, Pigweed (pigweed; [4]) | Pigweed plant response rating (0 to 100 scale, 0 is no effect, 100 is complete control) (pigweed; Postemergence, 500 g ai/ha) | Plant response rating, Pigweed (pigweed; preemergence, 500 g ai/ha) | Plant response rating, Barnyardgrass (barnyardgrass [1]; [5]) | Plant response rating, Barnyardgrass (barnyardgrass [1]; [6]) | Barnyardgrass plant response rating (0 to 100 scale, 0 is no effect, 100 is complete control) (barnyardgrass [1]; Postemergence, 500 g ai/ha) | Plant response rating, Barnyardgrass (barnyardgrass [1]; [7]) | Plant response rating, Ragweed (ragweed; [3]) | Plant response rating, Ragweed (ragweed; [4]) | Ragweed plant response rating (0 to 100 scale, 0 is no effect, 100 is complete control) (ragweed; Postemergence, 500 g ai/ha) | Plant response rating, Ragweed (ragweed; preemergence, 500 g ai/ha) | Plant response rating, Kochia (kochia; [3]) | Plant response rating, Kochia (kochia; [4]) | Kochia plant response rating (0 to 100 scale, 0 is no effect, 100 is complete control) (kochia; Postemergence, 500 g ai/ha) | Plant response rating, Kochia (kochia; preemergence, 500 g ai/ha) | Plant response rating, Sedge, Umbrella (sedge, umbrella) | Plant response rating, Wheat (wheat) | Wheat plant response rating (0 to 100 scale, 0 is no effect, 100 is complete control) (wheat) | Plant response rating, Ducksalad (ducksalad) | other results
1 | COc1cc(C2CNC(=O)C2C(=O)Nc2ccccc2Cl)ccc1F (racemic) [Compound 133] | 0 | 0 | 0 | 0 | 20 | 30 | 80 | 30 | 0 | 0 | 0 | 0 | 0 | 0 | 0 | 0 | 0 | 0 | 0 | 60 | Plant response rating, Foxtail, Giant (giant foxtail; [3]): 30; Plant response rating, Foxtail, Giant (giant foxtail; [4]): 20; Foxtail, Giant plant response rating (0 to 100 scale, 0 is no effect, 100 is complete control) (giant foxtail; Postemergence, 500 g ai/ha): 50; Plant response rating, Foxtail, Giant (giant foxtail; preemergence, 500 g ai/ha): 90; Plant response rating, Ryegrass, Italian (ryegrass, Italian; [3]): 0; Plant response rating, Ryegrass, Italian (ryegrass, Italian; [4]): 0; Ryegrass, Italian plant response rating (0 to 100 scale, 0 is no effect, 100 is complete control) (ryegrass, Italian; Postemergence, 500 g ai/ha): 0; Plant response rating, Ryegrass, Italian (ryegrass, Italian; preemergence, 500 g ai/ha): 0; Plant response rating, Corn (corn): 0; Corn plant response rating (0 to 100 scale, 0 is no effect, 100 is complete control) (corn): 0; Plant response rating, Blackgrass (blackgrass): 0; Blackgrass plant response rating (0 to 100 scale, 0 is no effect, 100 is complete control) (blackgrass): 0; Plant response rating, Rice (rice): 0; Plant response rating, Galium (galium): 0; Galium plant response rating (0 to 100 scale, 0 is no effect, 100 is complete control) (galium): 0; Plant response rating, Barnyardgrass (barnyardgrass [2]): 30
2 | Cc1cc(C2CNC(=O)C2C(=O)Nc2ccccc2Cl)ccc1F (racemic) [Compound 143] | 0 | 0 | 0 | 0 | 60 | 50 | 90 | 90 | 0 | 0 | 0 | 0 | 30 | 0 | 0 | 30 | 0 | 0 | 0 | 100 | Plant response rating, Foxtail, Giant (giant foxtail; [3]): 30; Plant response rating, Foxtail, Giant (giant foxtail; [4]): 20; Foxtail, Giant plant response rating (0 to 100 scale, 0 is no effect, 100 is complete control) (giant foxtail; Postemergence, 500 g ai/ha): 30; Plant response rating, Foxtail, Giant (giant foxtail; preemergence, 500 g ai/ha): 90; Plant response rating, Ryegrass, Italian (ryegrass, Italian; [3]): 0; Plant response rating, Ryegrass, Italian (ryegrass, Italian; [4]): 0; Ryegrass, Italian plant response rating (0 to 100 scale, 0 is no effect, 100 is complete control) (ryegrass, Italian; Postemergence, 500 g ai/ha): 0; Plant response rating, Ryegrass, Italian (ryegrass, Italian; preemergence, 500 g ai/ha): 0; Plant response rating, Corn (corn): 0; Corn plant response rating (0 to 100 scale, 0 is no effect, 100 is complete control) (corn): 0; Plant response rating, Blackgrass (blackgrass): 0; Blackgrass plant response rating (0 to 100 scale, 0 is no effect, 100 is complete control) (blackgrass): 0; Plant response rating, Rice (rice): 0; Plant response rating, Galium (galium): 0; Galium plant response rating (0 to 100 scale, 0 is no effect, 100 is complete control) (galium): 40; Plant response rating, Barnyardgrass (barnyardgrass [2]): 35
3 | Cc1ccc(C2CNC(=O)C2C(=O)Nc2ccccc2F)cc1F (racemic) [Compound 144] | 0 | 0 | 0 | 0 | 90 | 90 | 90 | 90 | 0 | 0 | 0 | 0 | 0 | 0 | 0 | 0 | 0 | 0 | 0 | 100 | Plant response rating, Foxtail, Giant (giant foxtail; [3]): 60; Plant response rating, Foxtail, Giant (giant foxtail; [4]): 40; Foxtail, Giant plant response rating (0 to 100 scale, 0 is no effect, 100 is complete control) (giant foxtail; Postemergence, 500 g ai/ha): 70; Plant response rating, Foxtail, Giant (giant foxtail; preemergence, 500 g ai/ha): 80; Plant response rating, Ryegrass, Italian (ryegrass, Italian; [3]): 0; Plant response rating, Ryegrass, Italian (ryegrass, Italian; [4]): 0; Ryegrass, Italian plant response rating (0 to 100 scale, 0 is no effect, 100 is complete control) (ryegrass, Italian; Postemergence, 500 g ai/ha): 40; Plant response rating, Ryegrass, Italian (ryegrass, Italian; preemergence, 500 g ai/ha): 20; Plant response rating, Corn (corn): 0; Corn plant response rating (0 to 100 scale, 0 is no effect, 100 is complete control) (corn): 20; Plant response rating, Blackgrass (blackgrass): 0; Blackgrass plant response rating (0 to 100 scale, 0 is no effect, 100 is complete control) (blackgrass): 30; Plant response rating, Rice (rice): 0; Plant response rating, Galium (galium): 10; Galium plant response rating (0 to 100 scale, 0 is no effect, 100 is complete control) (galium): 70; Plant response rating, Barnyardgrass (barnyardgrass [2]): 65
